Experimental data published in US10501461B2, “Tyrosine amide derivatives as Rho-kinase inhibitors” (CHIESI FARMACEUTICI S.P.A., priority 2017, dated 2019).

Assays:
Rho kinase 1 (ROCK-I) = Rho kinase 1 (ROCK-I) (Homo sapiens, UniProt Q13464); experiment: In vitro Rho kinase inhibitory activity assay (ADP-Glo), Rho kinase 1; format: biochemical; conditions: 10 μM ATP, 25° C., expressed as range of activity
Method: (§1) The effectiveness of compounds of the present invention to inhibit Rho kinase activity can be determined in a 10 μl assay containing 40 mM Tris pH7.5, 20 mM MgCl2 0.1 mg/ml BSA, 50 μM DTT and 2.5 μM peptide substrate (Myelin Basic Protein) using an ADP-Glo kit (Promega). Compounds were dissolved in DMSO such that the final concentration of DMSO was 1% in the assay. All reactions/incubations are performed at 25° C. Compound (2 ul) and either Rho kinase 1 or 2 (4 μl) were mixed and incubated for 30 mins. Reactions were initiated by addition of ATP (4 μl) such that the final concentration of ATP in the assay was 10 μM. After a 1 hour incubation 10 μl of ADP-Glo Reagent was added and after a further 45 minute incubation 20 ul of Kinase Detection Buffer was added and the mixture incubated for a further 30 minutes. The luminescent signal was measured on a luminometer. […] Compounds were tested in dose-response format and the inhibition of kinase activity was calculated at each concentration of compound. To determine the IC50 (concentration of compound required to inhibit 50% of the enzyme activity) data were fit to a plot of % inhibition vs Log10 compound concentration using a sigmoidal fit with a variable slope and fixing the maximum to 100% and the minimum to 0%. To determine the Ki values the Cheng-Prusoff equation was utilized (Ki=IC50/(1+[S]/Km).

Rho kinase 2 (ROCK-II) = Rho kinase 2 (ROCK-II) (Homo sapiens, UniProt O75116); experiment: In vitro Rho kinase inhibitory activity assay (ADP-Glo), Rho kinase 2; format: biochemical; conditions: 10 μM ATP, 25° C., expressed as range of activity
Method: as §1

Sequence of Rho kinase 2 (ROCK-II) (O75116 whole entry): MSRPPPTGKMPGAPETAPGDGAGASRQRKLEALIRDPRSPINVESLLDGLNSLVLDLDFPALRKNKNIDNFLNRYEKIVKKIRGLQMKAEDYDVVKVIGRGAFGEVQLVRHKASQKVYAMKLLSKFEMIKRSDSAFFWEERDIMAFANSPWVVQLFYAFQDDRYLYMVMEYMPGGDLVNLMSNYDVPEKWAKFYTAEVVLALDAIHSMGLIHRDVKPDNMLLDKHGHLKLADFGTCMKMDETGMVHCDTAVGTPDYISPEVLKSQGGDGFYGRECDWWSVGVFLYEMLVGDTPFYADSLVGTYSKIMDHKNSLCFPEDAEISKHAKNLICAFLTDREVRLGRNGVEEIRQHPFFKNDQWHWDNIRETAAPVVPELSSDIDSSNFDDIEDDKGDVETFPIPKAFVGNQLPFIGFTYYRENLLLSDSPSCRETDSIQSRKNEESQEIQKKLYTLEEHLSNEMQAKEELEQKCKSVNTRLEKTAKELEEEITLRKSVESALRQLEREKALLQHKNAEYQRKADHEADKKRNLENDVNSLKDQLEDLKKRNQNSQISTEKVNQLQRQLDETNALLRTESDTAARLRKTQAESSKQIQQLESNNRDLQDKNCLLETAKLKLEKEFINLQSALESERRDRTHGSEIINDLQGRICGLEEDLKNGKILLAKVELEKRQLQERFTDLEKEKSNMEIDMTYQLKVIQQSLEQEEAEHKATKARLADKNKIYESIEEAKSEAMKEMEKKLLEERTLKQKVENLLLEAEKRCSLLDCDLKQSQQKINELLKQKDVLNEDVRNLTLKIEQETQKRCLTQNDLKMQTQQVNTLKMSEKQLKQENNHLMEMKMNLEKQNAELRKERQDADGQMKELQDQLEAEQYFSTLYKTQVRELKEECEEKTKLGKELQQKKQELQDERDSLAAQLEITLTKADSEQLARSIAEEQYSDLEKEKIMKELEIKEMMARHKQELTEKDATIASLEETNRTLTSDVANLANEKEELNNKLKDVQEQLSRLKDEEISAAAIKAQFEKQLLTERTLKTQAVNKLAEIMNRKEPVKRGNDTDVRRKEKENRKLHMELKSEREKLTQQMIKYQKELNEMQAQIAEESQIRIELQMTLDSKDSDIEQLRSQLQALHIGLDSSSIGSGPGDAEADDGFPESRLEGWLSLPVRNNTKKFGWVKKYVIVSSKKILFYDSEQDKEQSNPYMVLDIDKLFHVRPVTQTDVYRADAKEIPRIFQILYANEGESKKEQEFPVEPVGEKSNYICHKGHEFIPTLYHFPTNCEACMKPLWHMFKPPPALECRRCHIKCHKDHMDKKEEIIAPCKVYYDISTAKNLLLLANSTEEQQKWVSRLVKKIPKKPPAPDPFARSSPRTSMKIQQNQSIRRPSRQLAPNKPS
Sequence of Rho kinase 1 (ROCK-I) (Q13464 whole entry): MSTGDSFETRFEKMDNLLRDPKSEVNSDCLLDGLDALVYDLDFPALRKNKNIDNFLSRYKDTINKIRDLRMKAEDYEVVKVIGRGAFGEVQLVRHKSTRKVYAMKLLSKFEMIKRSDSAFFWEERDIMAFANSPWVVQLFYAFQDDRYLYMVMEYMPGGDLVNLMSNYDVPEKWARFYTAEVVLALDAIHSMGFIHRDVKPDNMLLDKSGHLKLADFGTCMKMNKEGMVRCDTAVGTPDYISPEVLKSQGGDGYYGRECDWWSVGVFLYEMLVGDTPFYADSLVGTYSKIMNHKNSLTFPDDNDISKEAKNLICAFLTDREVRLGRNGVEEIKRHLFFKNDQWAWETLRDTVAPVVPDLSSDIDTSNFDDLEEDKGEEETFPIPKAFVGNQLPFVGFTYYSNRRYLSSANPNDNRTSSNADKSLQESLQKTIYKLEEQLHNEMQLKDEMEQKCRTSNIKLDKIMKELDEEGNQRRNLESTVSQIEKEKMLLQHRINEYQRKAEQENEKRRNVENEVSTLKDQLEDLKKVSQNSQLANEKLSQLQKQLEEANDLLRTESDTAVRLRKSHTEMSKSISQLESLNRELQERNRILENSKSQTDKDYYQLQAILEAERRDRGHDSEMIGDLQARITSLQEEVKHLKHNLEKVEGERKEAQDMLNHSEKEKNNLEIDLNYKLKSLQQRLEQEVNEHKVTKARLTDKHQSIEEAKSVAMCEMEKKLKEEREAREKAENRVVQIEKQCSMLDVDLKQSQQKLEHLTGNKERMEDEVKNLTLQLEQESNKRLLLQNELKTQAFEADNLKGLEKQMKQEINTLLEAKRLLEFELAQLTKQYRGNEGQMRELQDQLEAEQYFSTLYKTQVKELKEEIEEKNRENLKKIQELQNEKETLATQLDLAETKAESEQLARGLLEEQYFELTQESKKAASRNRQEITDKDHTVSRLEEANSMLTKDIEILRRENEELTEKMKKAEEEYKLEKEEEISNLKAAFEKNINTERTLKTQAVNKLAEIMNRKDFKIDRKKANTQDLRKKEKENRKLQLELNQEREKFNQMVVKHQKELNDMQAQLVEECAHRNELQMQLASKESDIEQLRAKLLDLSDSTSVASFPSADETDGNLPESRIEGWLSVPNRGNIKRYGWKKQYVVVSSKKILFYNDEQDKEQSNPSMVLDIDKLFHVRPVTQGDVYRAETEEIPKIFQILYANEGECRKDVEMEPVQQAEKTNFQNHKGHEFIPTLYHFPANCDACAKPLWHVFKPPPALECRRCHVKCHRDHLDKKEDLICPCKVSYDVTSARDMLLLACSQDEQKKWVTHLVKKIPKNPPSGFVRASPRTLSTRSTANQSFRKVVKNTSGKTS

For `Cc1c[nH]c2nccc(Oc3ccc(CC(N)C(=O)NCc4ccc(CO)cc4)cc3F)c12` (stereo not shown) [Example 62, 2-amino-3-(3-fluoro-4-((3-methyl-1H-pyrrolo[2,3-b]pyridin-4-yl)oxy)phenyl)-N-(4-(hydroxymethyl)benzyl)propanamide], the Ki (Rho kinase 1 (ROCK-I)) was under 3 nM and the Ki (Rho kinase 2 (ROCK-II)) was under 3 nM.

Work on `Cc1c[nH]c2ncnc(Oc3ccc(C[C@H](N)C(=O)N4CCN(Cc5ccccn5)CC4)cc3F)c12` [Example 120, (S)-2-amino-3-(3-fluoro-4-((5-methyl-7H-pyrrolo[2,3-d]pyrimidin-4-yl)oxy)phenyl)-1-(4-(pyridin-2-ylmethyl)piperazin-1-yl)propan-1-one] yielded a Ki (Rho kinase 1 (ROCK-I)) of 3 to 30 nM and a Ki (Rho kinase 2 (ROCK-II)) of under 3 nM.

Work on `Cc1c[nH]c2nccc(Oc3ccc(C[C@H](N)C(=O)N4CC[C@@H](N(C)C)C4)cc3F)c12` [Example 43, (S)-2-amino-1-((R)-3-(dimethylamino)pyrrolidin-1-yl)-3-(3-fluoro-4-((3-methyl-1H-pyrrolo[2,3-b]pyridin-4-yl)oxy)phenyl)propan-1-one] yielded a Ki (Rho kinase 1 (ROCK-I)) of under 3 nM and a Ki (Rho kinase 2 (ROCK-II)) of under 3 nM.

`Cc1c[nH]c2nccc(Oc3ccc(C[C@H](N)C(=O)N4CCC(N(C)C)CC4)cc3F)c12` [Example 14, (S)-2-amino-1-(4-(dimethylamino)piperidin-1-yl)-3-(3-fluoro-4-((3-methyl-1H-pyrrolo[2,3-b]pyridin-4-yl)oxy)phenyl)propan-1-one] was tested, and the Ki (Rho kinase 1 (ROCK-I)) was under 3 nM and the Ki (Rho kinase 2 (ROCK-II)) was under 3 nM.

In the case of `Cc1noc(C2CCN(C(=O)[C@@H](N)Cc3ccc(Oc4ccnc5[nH]cc(C)c45)c(F)c3)C2)n1` (single isomer, unassigned) [Example 8B], the Ki (Rho kinase 1 (ROCK-I)) is reported as under 3 nM and the Ki (Rho kinase 2 (ROCK-II)) is reported as under 3 nM.

In the case of `CNC(=O)c1ccc(CN2CCN(C(=O)[C@@H](N)Cc3ccc(Oc4ccnc5[nH]cc(C)c45)c(F)c3)CC2)o1` [Example 166, (S)-5-((4-(2-amino-3-(3-fluoro-4-((3-methyl-1H-pyrrolo[2,3-b]pyridin-4-yl)oxy)phenyl)propanoyl)piperazin-1-yl)methyl)-N-methylfuran-2-carboxamide], the Ki (Rho kinase 1 (ROCK-I)) is reported as under 3 nM and the Ki (Rho kinase 2 (ROCK-II)) is reported as under 3 nM.

With `Cc1c[nH]c2nccc(Oc3ccc(C[C@H](N)C(=O)NC4(C#N)CCCCC4)cc3F)c12` [Example 34, (S)-2-amino-N-(1-cyanocyclohexyl)-3-(3-fluoro-4-((3-methyl-1H-pyrrolo[2,3-b]pyridin-4-yl)oxy)phenyl)propanamide] the Ki (Rho kinase 1 (ROCK-I)) was under 3 nM and the Ki (Rho kinase 2 (ROCK-II)) was under 3 nM.

In the case of `CSc1nccc(CN2CCN(C(=O)[C@@H](N)Cc3ccc(Oc4ccnc5[nH]cc(C)c45)c(F)c3)CC2)n1` [Example 154, (S)-2-amino-3-(3-fluoro-4-((3-methyl-1H-pyrrolo[2,3-b]pyridin-4-yl)oxy)phenyl)-1-(4-((2-(methylthio)pyrimidin-4-yl)methyl)piperazin-1-yl)propan-1-one], the Ki (Rho kinase 1 (ROCK-I)) is reported as under 3 nM and the Ki (Rho kinase 2 (ROCK-II)) is reported as under 3 nM.

Work on `N#Cc1c[nH]c2nccc(Oc3ccc(C[C@H](N)C(=O)N4CCN(Cc5ccccn5)CC4)cc3F)c12` [Example 224, (S)-4-(4-(2-amino-3-oxo-3-(4-(pyridin-2-ylmethyl)piperazin-1-yl)propyl)-2-fluorophenoxy)-1H-pyrrolo[2,3-b]pyridine-3-carbonitrile] yielded a Ki (Rho kinase 1 (ROCK-I)) of under 3 nM and a Ki (Rho kinase 2 (ROCK-II)) of under 3 nM.

In the case of `Cc1c[nH]c2nccc(Oc3ccc(C[C@H](N)C(=O)N4C[C@@H]5C[C@H]4CN5Cc4ccccc4)cc3F)c12` [Example 24, (S)-2-amino-1-((1S,4S)-5-benzyl-2,5-diazabicyclo[2.2.1]heptan-2-yl)-3-(3-fluoro-4-((3-methyl-1H-pyrrolo[2,3-b]pyridin-4-yl)oxy)phenyl)propan-1-one], the Ki (Rho kinase 1 (ROCK-I)) is reported as under 3 nM and the Ki (Rho kinase 2 (ROCK-II)) is reported as under 3 nM.

Work on `O=C(NC(Cc1ccc(Oc2ccnc3[nH]ccc23)cc1)C(=O)Nc1ccccc1)C1CCNC1` (stereo not shown) [Example 179, N-(3-(4-((1H-pyrrolo[2,3-b]pyridin-4-yl)oxy)phenyl)-1-oxo-1-(phenylamino)propan-2-yl)pyrrolidine-3-carboxamide] yielded a Ki (Rho kinase 1 (ROCK-I)) of 3 to 30 nM and a Ki (Rho kinase 2 (ROCK-II)) of 3 to 30 nM.
